Measured values from patent US4272630A, “D-Homosteroids” (priority 1979, dated 1981).
Values after ≈ are worked out from the molar mass of the structure shown.

Assays:
[1] = tested on: ear of male mice (oedema); assay: Mouse Ear Test (oedema inhibition, topical, croton oil); format: in vivo; settings: dissolved in croton oil, applied 15 seconds under 600 g to right ear of male mice (25-30 g), 4 hours, read-out: Mouse Ear EC50 (concentration which gave a 50% oedema inhibition in comparison with a control group)
Procedure: (§1) The tests carried out can be described as follows:
The D-homosteroids, dissolved in croton oil, were applied for 15 seconds under a pressure of 600 g to the right ear of male mice weighing 25-30 g. The left ear served as the control. Four hours later, the mice were killed, and tissue was removed with a punch from the same position on treated and untreated ears and weighed. The EC50, namely that concentration which gave a 50% oedema inhibition in comparison with a control group, was determined.

[2] = tested on: granulomas in female rats; assay: Felt Pellet Test (granuloma reduction, oral); format: in vivo; settings: Rattus norvegicus, four successive days, female rats (90-110 g), removed on 5th day, read-out: Felt Pellet ED40 (dosage which gave a 40% reduction of the granulation weight)
Procedure: as §1
Two felt pellets were implanted under the skin (scapula region) in female rats (90-110 g) under ether narcosis. The D-homosteroids were administered orally on four successive days commencing on the day of the implantation. On the 5th day, the rats were killed, and the granulomas which formed were removed, dried and weighed. The ED40, namely that dosage which gave a 40% reduction of the granulation weight, was determined.

## COC(=O)C1(OC(C)=O)C=CCC2C3CCC4=CC(=O)C=CC4(C)C3(F)C(O)CC21C [17-acetoxy-9-fluoro-11β-hydroxy-3-oxo-D-homoandrosta-1,4,16-triene-17aβ-carboxylic acid methyl ester]
[1]
  EC50: 10 µg/mL (≈ 23.1 µM)
[2]
  ED40: 6 mg/kg

## COC(=O)C1(OC(C)=O)C=CCC2C3CCC4=CC(=O)C=CC4(C)C3C(O)CC21C [17aα-acetoxy-11β-hydroxy-3-oxo-D-homoandrosta-1,4,16-triene-17aβ-carboxylic acid methyl ester]
[1]
  EC50: 30 µg/mL (≈ 72.4 µM)
[2]
  ED40: 6.4 mg/kg
